Test results published in patent US6436649B1, “Method for detecting and/or quantifying a hapten in a homogeneous phase and device for implementation thereof” (priority 1996, dated 2002).
Where two headings read alike, the source gives them in different places.

Tests used:
P99/Q908R β-lactamases = P99/Q908R β-lactamases (Enterobacter cloacae, UniProt P05364); conditions: enzyme P99/Q908R, cited from earlier work
E. Coli β-lactamase = E. Coli β-lactamase (Escherichia coli, UniProt P00811); conditions: enzyme E. Coli; cited from earlier work
E. Coli β-lactamase, sequence (P00811 20-377): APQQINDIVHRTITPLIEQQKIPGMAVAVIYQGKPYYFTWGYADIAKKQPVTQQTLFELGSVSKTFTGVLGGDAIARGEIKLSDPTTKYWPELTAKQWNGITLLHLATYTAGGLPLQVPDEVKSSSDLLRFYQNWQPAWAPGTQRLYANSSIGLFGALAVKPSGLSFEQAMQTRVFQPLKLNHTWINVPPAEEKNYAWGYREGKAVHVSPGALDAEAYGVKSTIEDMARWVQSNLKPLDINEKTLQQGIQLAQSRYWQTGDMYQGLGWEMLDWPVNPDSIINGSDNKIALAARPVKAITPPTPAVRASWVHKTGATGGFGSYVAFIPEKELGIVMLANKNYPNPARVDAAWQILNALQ

[1] = test system: P99/Q908E/E. Coli β-lactamases; conditions: enzymes P99/Q908E/E. Coli; cited from earlier work
type C β-lactamases [2] = biological target: T1, type C β-lactamases (Enterobacter cloacae, UniProt P05364); conditions: Ki of the parent inhibitor; cited from earlier work
T1 construct: Ki

type C β-lactamases [3] = test system: T2, type C β-lactamases; conditions: selected inhibitors, over the β-lactamases; cited from earlier work
T2 construct: rows headed: Km; kcat

[4] = biological target: β-lactamase from C. Freundii (Citrobacter freundii, UniProt P05193); assay: Inhibitory activity (Ki) on nitrocefin hydrolysis by β-lactamase; assay type: biochemical
β-lactamase from C. Freundii, sequence (P05193 21-381): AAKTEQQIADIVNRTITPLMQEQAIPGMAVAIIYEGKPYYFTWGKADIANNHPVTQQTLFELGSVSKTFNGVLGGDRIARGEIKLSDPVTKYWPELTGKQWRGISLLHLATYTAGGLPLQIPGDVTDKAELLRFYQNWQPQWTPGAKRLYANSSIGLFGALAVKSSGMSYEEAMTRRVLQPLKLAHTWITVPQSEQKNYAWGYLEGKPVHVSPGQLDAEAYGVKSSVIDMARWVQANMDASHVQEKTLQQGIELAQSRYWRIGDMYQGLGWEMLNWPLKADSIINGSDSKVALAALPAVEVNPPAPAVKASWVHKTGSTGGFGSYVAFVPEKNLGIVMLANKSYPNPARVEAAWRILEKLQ
Text: (§1) The choice of the inhibitor depends on the kinetic parameters and on the possibilities of coupling with the hapten to be assayed (presence of functional groups which are not essential for the inhibitory activity). At the enzymatic level, the ideal inhibitor should have a kcat which is as low as possible (very slow rate of degradation) while having a Km which is as low as possible (high affinity for the enzyme) . In the case of the inhibition reactions envisaged, the Km value is close to the constant Ki. The Km can therefore be estimated from an evaluation of the Ki. This is obtained from kinetic measurements carried out in the presence of a reporter substrate with known characteristics, and this in the presence of a variable quantity of inhibitor. The ideal inhibitor should also have a rate constant k+1 (corresponding to the step of binding of the inhibitor to the enzyme) which is as high as possible. Based on this principle, it has been possible to select five inhibitors. They are:
(§2) The measurements were carried out on β-lactamases from different bacterial strains: Enterobacter cloacae P99, Escherichia coli and Citrobacter freundii, symbolized by: P99, E. Coli and C. Freundii.
(§3) The measurements are divided into four parts. […] The second is an evaluation of the inhibitory activity of the inhibitors (Table 9). The third groups together the measurements of enzymatic activity in order to determine the quantity of antibody to be used in the assay. The fourth part comprises the assay of the haptens.
(§4) By way of example, the results of a selective study carried out on this compound are provided. The results presented in Table 9 give the values obtained according to a similar method. […] These measurements determine the concentrations of inhibitor (I) to be used during the assay.

β-lactamase from E. Coli [5] = biological target: T3, β-lactamase from E. Coli (Escherichia coli, UniProt P00811); assay: as above; assay type: biochemical
T3 sequence (P00811 20-377): as the sequence (P00811 20-377) above
Text: as §1, §2, §3, §4

[6] = biological target: T4, β-lactamase from Enterobacter cloacae P99 (Enterobacter cloacae, UniProt P05364); assay: as above; assay type: biochemical
T4 construct: host or cells: Enterobacter cloacae P99 (strain of origin as printed)
Text: as §1, §2, §3, §4

β-lactamase from E. Coli [7] = biological target: T3, β-lactamase from E. Coli; assay: Inhibitory activity in the presence of anti-nandrolone antibodies; assay type: biochemical; conditions: for V1: without antibodies
Text: (§5) The objective of these measurements, by way of example, is the evaluation of the restoration of the predominant part of the enzymatic activity in the presence of a precise quantity of inhibitor.

β-lactamase from P99 = biological target: T5, β-lactamase from P99 (Enterobacter cloacae, UniProt P05364); assay: as above; assay type: biochemical; conditions: P99, [S] 60, [E] 0.25, [I] 0.2 μM
T5 construct: host or cells: Enterobacter cloacae P99 (strain of origin as printed)
Text: as §5

Citro.F. β-lactamase = Citro.F. β-lactamase (Citrobacter freundii, UniProt P05193); conditions: enzyme Citro.F.; cited from earlier work
Citro.F. β-lactamase, sequence (P05193 21-381): as the sequence (P05193 21-381) above

[8] = C. Freundii [E] 0.375 nM, [S] nitrocefin 60 μM, [I] 0.1 μM
[9] = C. Freundii [E] 0.375 nM, [S] nitrocefin 60 μM, [I] 0.2 μM
[10] = E. Coli [E] 1 nM, [S] nitrocefin 150 μM, [I] 0.2 μM
[11] = E. Coli [E] 1 nM, [S] nitrocefin 150 μM, [I] 0.4 μM
[12] = P99 [E] 0.0625 nM, [S] nitrocefin 50 μM, [I] 0.1 μM
[13] = P99 [E] 0.0625 nM, [S] nitrocefin 50 μM, [I] 0.3 μM
[14] = P99 [E] 0.0625 nM, [S] nitrocefin 50 μM, [I] 0.4 μM
[15] = P99 [E] 0.0625 nM, [S] nitrocefin 50 μM, [I] 0.5 μM
[16] = P99 [E] […], [S] nitrocefin 60 μM, [I] 0.2 μM
[17] = P99 [E] […], [S] nitrocefin 60 μM, [I] 0.24 μM

CC(=O)OCC1=C(C(=O)O)N2C(=O)[C@@H](NC(=O)Cc3cccs3)[C@H]2SC1 [Cephalothin]
Km (P99/Q908R β-lactamases): 15 µM
kcat (P99/Q908R β-lactamases): 200 S^−1
Km (E. Coli β-lactamase): 42 µM
kcat (E. Coli β-lactamase): 300 S^−1

CC1(C)S[C@@H]2[C@H](NC(=O)[C@H](C(=O)O)c3ccsc3)C(=O)N2[C@H]1C(=O)O [Ticarcillin]
Km [1]: 0.25 µM
kcat [1]: 0.045 S^−1

Cc1onc(-c2ccccc2)c1C(=O)N[C@@H]1C(=O)N2[C@@H]1SC(C)(C)[C@@H]2C(=O)O [Oxacillin]
Km [1]: 0.0005 µM
kcat [1]: 0.005 S^−1
Ki (type C β-lactamases [2]): 0.5 nM
kcat (type C β-lactamases [3]): 0.005 s⁻¹

CO/N=C(\C(=O)N[C@@H]1C(=O)N2C(C(=O)O)=C(COC(N)=O)CS[C@H]12)c1ccco1 [Cefuroxime]
Km (P99/Q908R β-lactamases): 0.02 µM
kcat (P99/Q908R β-lactamases): 0.04 S^−1
Km (E. Coli β-lactamase): 0.15 µM
kcat (E. Coli β-lactamase): 0.15 S^−1
Km (type C β-lactamases [3]): 0.02 µM

CC1=C(C(=O)O)N2C(=O)[C@@H](NC(=O)[C@H](N)c3ccccc3)[C@H]2SC1 [Cephalexin]
kcat (P99/Q908R β-lactamases): 100 S^−1
Km (P99/Q908R β-lactamases; read-out: Km): 10 µM
Km (E. Coli β-lactamase): 4 µM
kcat (E. Coli β-lactamase): 38 S^−1

CC1(C)S[C@@H]2[C@H](NC(=O)C(C(=O)O[C@H]3CC[C@H]4[C@@H]5CCC6=CC(=O)CC[C@@H]6[C@H]5CC[C@]34C)c3ccccc3)C(=O)N2[C@H]1C(=O)O (stereo partly drawn) [Conjugate 1, nandrolone carbenicillinate]
V0/V1 1 [4, 8]: 0.15
V1 [4, 8]: 209 nM/s
V0/V1 1 [4, 9]: 0.47
V1 [4, 9]: 163 nM/s
Ki [4, 8]: 80 nM
Ki [4, 9]: 62 nM
Ki ([4]; C. Freundii, summary value of the two determinations): 71 nM
V0/V1 1 (β-lactamase from E. Coli [5]; [10]): 0.19
V1 (β-lactamase from E. Coli [5]; [10]): 260 nM/s
V0/V1 1 (β-lactamase from E. Coli [5]; [11]): 0.41
V1 (β-lactamase from E. Coli [5]; [11]): 220 nM/s
Ki (β-lactamase from E. Coli [5]; [10]): 800 nM
Ki (β-lactamase from E. Coli [5]; [11]): 760 nM
Ki (β-lactamase from E. Coli [5]; E. Coli, summary value of the two determinations): 780 nM
Ki ([6]; P99, summary value of the six determinations): 74 nM
Ki [6, 12]: 76 nM
Ki [6, 13]: 62 nM
Ki [6, 14]: 65 nM
Ki [6, 15]: 74 nM
Ki [6, 16]: 88 nM
Ki [6, 17]: 78 nM
Ki ([6]; enzyme from P99): 70 nM
V0/V1 1 [6, 12]: 0.44
V1 [6, 12]: 36 nM/s
V0/V1 1 [6, 13]: 1.6
V1 [6, 13]: 20 nM/s
V0/V1 1 [6, 14]: 2.06
V1 [6, 14]: 17 nM/s
V0/V1 1 [6, 15]: 2.25
V1 [6, 15]: 16 nM/s
V0/V1 1 [6, 16]: 0.66
V1 [6, 16]: 131 nM/s
V0/V1 1 [6, 17]: 0.88
V1 [6, 17]: 116 nM/s
Vab (β-lactamase from E. Coli [7]; [S] 150, [E] 1, [I] 0.24 μM, anti-nandrolone serum dil. 625 x): 307 nM/s
Vab (β-lactamase from E. Coli [7]; [S] 150, [E] 1, [I] 0.24 μM, anti-nandrolone serum dil. 714 x): 299 nM/s
V1 (β-lactamase from E. Coli [7]; [S] 150, [E] 1, [I] 0.24 μM): 210 nM/S
Vab (β-lactamase from E. Coli [7]; [S] 150, [E] 1, [I] 1 μM, anti-nandrolone serum dil. 100 x): 211 nM/s
Vab (β-lactamase from E. Coli [7]; [S] 150, [E] 1, [I] 1 μM, anti-nandrolone serum dil. 125 x): 210 nM/s
Vab (β-lactamase from E. Coli [7]; [S] 150, [E] 1, [I] 1 μM, anti-nandrolone serum dil. 140 x): 200 nM/s
Vab (β-lactamase from E. Coli [7]; [S] 150, [E] 1, [I] 1 μM, anti-nandrolone serum dil. 200 x): 174 nM/s
Vab (β-lactamase from E. Coli [7]; [S] 150, [E] 1, [I] 1 μM, anti-nandrolone serum dil. 500 x): 123 nM/s
V1 (β-lactamase from E. Coli [7]; [S] 150, [E] 1, [I] 1 μM): 90 nM/S
Vab (β-lactamase from P99; anti-nandrolone serum dil. 500 x): 200 nM/s
Vab (β-lactamase from P99; anti-nandrolone serum dil. 625 x): 200 nM/s
Vab (β-lactamase from P99; anti-nandrolone serum dil. 770 x): 189 nM/s
Vab (β-lactamase from P99; anti-nandrolone serum dil. 1000 x): 170 nM/s
V1 (β-lactamase from P99; without antibodies): 131 nM/S

O=C(Cc1cccs1)N[C@@H]1C(=O)N2C(C(=O)[O-])=C(C[n+]3ccccc3)CS[C@H]12 [Cephaloridine]
Km (P99/Q908R β-lactamases): 70 µM
kcat (P99/Q908R β-lactamases): 650 S^−1
Km (E. Coli β-lactamase): 170 µM
kcat (E. Coli β-lactamase): 130 S^−1
Km (Citro.F. β-lactamase): 35 µM
kcat (Citro.F. β-lactamase): 700 S^−1

CC(=O)OCC1=C(C(=O)O)N2C(=O)[C@@H](NC(=O)CCC[C@@H](N)C(=O)O)[C@H]2SC1 [Cephalosporin C]
kcat (P99/Q908R β-lactamases): 1100 S^−1
Km (P99/Q908R β-lactamases; read-out: Km): 400 µM
